Drawing on PubChem BioAssay AID1645864 (Buhrlage Lab, Dana-Farber Cancer Institute and Novartis …, 2021), this text covers IC50 for 85 compounds.

Usually IC50 stands for the midpoint of a concentration-inhibition curve.

Activity calls are given as the source filed them.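 Rule for the calls: active = maximal inhibition of USP17 at or above 30% in the confirmation dose-response, a value not among the printed readouts; inactive = the rest.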

The target in this assay is Ubiquitin carboxyl-terminal hydrolase 17-like protein 5 (Homo sapiens) (UniProt A8MUK1). Briefly: ubiquitin-specific protease 17 DUB inhibitors, concentration-effect assay, cell-free, verification of initial screening actives (AID 1645864). The conditions noted are these: purified USP17, ubiquitin-rhodamine cleavage fluorescence, 3 h.
Ubiquitin carboxyl-terminal hydrolase 17-like protein 5 (Homo sapiens), sequence (A8MUK1 whole entry, looked up): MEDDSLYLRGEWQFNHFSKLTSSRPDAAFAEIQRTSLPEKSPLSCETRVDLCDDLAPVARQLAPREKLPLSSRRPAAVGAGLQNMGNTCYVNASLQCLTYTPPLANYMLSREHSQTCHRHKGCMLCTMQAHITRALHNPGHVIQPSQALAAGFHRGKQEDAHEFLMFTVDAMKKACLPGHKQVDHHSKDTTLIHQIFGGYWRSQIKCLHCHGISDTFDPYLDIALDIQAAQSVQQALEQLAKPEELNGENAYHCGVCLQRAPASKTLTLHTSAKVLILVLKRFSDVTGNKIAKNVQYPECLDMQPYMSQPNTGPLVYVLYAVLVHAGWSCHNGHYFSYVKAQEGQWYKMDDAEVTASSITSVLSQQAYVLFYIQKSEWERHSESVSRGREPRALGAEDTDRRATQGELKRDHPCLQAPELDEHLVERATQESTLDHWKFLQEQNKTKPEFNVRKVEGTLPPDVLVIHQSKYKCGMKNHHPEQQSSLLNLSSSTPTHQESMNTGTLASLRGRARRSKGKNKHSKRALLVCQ
On to `COc1cc(NC(=O)Cc2ccccc2)ccc1NC(=O)c1cc2ccccc2o1`, for which the half-inhibitory concentration (IC50) was 9.82 µM.

Regarding `CCc1ccc(NC(=O)Cc2nnc3cc(-c4nc(C)no4)ccn23)cc1`, the concentration for half-maximal inhibition (IC50) is 20.2 µM.

Regarding `O=C(Nc1cccc2ccccc12)N1CCC(c2nc3c(nnn3Cc3ccc(F)cc3)c(=O)[nH]2)CC1`, the half-inhibitory concentration (IC50) is 28.6 µM.

For the compound `Cc1ccc(CN2C(=O)c3cc4ccccc4n3CC2(C)C(=O)NCc2ccccc2)o1` (stereo not given), the IC50 is 26.7 µM.

Take `COc1ccc(C(=O)N2CCCC3(C2)Nc2cccnc2NC3=NC2CCCC2)cn1` (stereo not given): the IC50 is > 50 µM (inactive).

Regarding `COc1ccc(CCNC(=O)c2cc(C3CC3)nc3c2cnn3C(C)C)cc1`, the IC50 was > 50 µM (inactive).

Turning to `CCCCCC(=O)N1c2ccccc2NC2=C(C(=O)CC(c3ccc(C(C)(C)C)cc3)C2)C1c1ccncc1` (stereo not given), the 50% inhibitory concentration (IC50) is 4.7 µM.

As for `CCOc1ccc(NC(=O)Cn2c(=O)n(CCC(=O)NCc3ccccc3OC)c(=O)c3ccccc32)cc1`, the concentration for half-maximal inhibition (IC50) is 4.35 µM.

For the compound `O=C(c1ccc2occc2c1)N1CCC(S(=O)(=O)c2ccc(-c3ccco3)cc2)CC1`, the IC50 was > 50 µM (inactive).

For the compound `Cc1oc(-c2ccc(C(=O)NCC3COCCO3)cc2)nc1CN1CCc2ccccc21` (stereo not given), the IC50 is > 50 µM (inactive).

In the case of `CCCc1cc(=O)oc2cc(OCC(=O)NCc3ccc(OC)cc3)ccc12`, the concentration for half-maximal inhibition (IC50) was 9.4 µM.

Take `Cc1ccc(NC(=O)c2nnn(-c3ccccc3Br)c2C)cc1C`: the IC50 was > 50 µM (inactive).

Consider `O=C(CSc1ncnc2c1sc1cccc(F)c12)N1CCCCCC1`, for which the IC50 was > 50 µM (inactive).

With `COc1ccc(NC(=O)c2nnn(-c3cccc(C)c3)c2C)cc1`, the IC50 is > 50 µM (inactive).

For the compound `Nc1ncnc(SCc2ccc(Cl)cc2)n1`, the IC50 was 27.1 µM.

As for `O=C(NCc1ccccc1Cl)c1ccc(-c2nnc(-c3ccccc3)o2)cc1`, the IC50 is 2.5 µM.

As to `CCC(C)NC(=O)Cn1c(=O)n(-c2ccccc2)c(=O)c2ccc(C(=O)NCc3ccco3)cc21` (stereo not given), the IC50 is 45 µM.

As for `Cc1nn(-c2ccccc2)c(C)c1C(=O)OCC(=O)Nc1cccc(Br)c1`, the concentration for half-maximal inhibition (IC50) was 40.6 µM.

Turning to `CCn1ccc2c(cc(C(=O)Nc3ccccc3F)n2C)c1=O`, the IC50 was > 50 µM (inactive).

On to `CC1CCN(c2cc(-n3cnc(C(=O)N4CCCCC4)c3)ncn2)CC1`, for which the IC50 was > 50 µM (inactive).

Turning to `N#Cc1ccc(NC(=O)COC(=O)c2ccc3ccccc3n2)cc1`, the IC50 is > 50 µM (inactive).

Take `O=C(CCn1c(=O)c2ccccc2n(Cc2cc(=O)n3ccccc3n2)c1=O)NCCc1ccc(Cl)cc1`: the IC50 is 31.5 µM.

As for `Cc1nc(NCc2ccccn2)c2cc(-c3ccccc3)sc2n1`, the IC50 was 24.7 µM.

For the compound `Cn1ccnc1CN1C[C@H]2CCN(c3ncccn3)C[C@H]2C1`, the IC50 was > 50 µM (inactive).

Consider `COc1cccc(N2CCN(C(=O)c3cc(NC(C)=O)cc4nc(C)ccc34)CC2)c1`, for which the IC50 is > 50 µM (inactive).

With `Cc1cc(C)c2cc(CN(CCc3ccccc3)C(=O)Nc3ccccc3)c(=O)[nH]c2c1`, the half-maximal inhibitory concentration (IC50) is 43.5 µM.

`NS(=O)(=O)c1cccc(NS(=O)(=O)c2ccc(/C=C/C(=O)OCC(=O)c3ccc(Br)cc3)cc2)c1`: the IC50 is > 50 µM (inactive).

Turning to `COc1ccc(Cn2cnc3c([nH]c4ccc(Br)cc43)c2=O)cc1`, the IC50 was 0.778 µM.

For the compound `CCCCCCCc1cc(O)cc(O)c1`, the IC50 is > 50 µM (inactive).

Take `O=C(Nc1ccc(F)c(Cl)c1)c1ccc(N2CCCCS2(=O)=O)cc1Cl`: the IC50 is > 50 µM (inactive).

For the compound `COCCCn1c(C(=O)NCCc2ccccc2)cc2c(=O)n3cccc(C)c3nc21`, the half-inhibitory concentration (IC50) is 28.5 µM.

In the case of `Cc1nc2c3ccccc3nc(NCc3ccc4c(c3)OCO4)n2n1`, the IC50 was 33.8 µM.

With `Cc1c(-c2nnc(-c3ccccn3)o2)nnn1-c1cccc(Cl)c1`, the IC50 is 35.1 µM.

As to `CC1CCN(S(=O)(=O)c2ccc(C(=O)Nc3ccc(S(N)(=O)=O)cc3)cc2)CC1`, the IC50 is 38.3 µM.

`COC1=CC(=O)c2c(O)c3c(c(C)c2C1=O)C[C@@]1(O)[C@H](O[C@H]2CC[C@H](O[C@H]4C[C@@](C)(O)[C@H](OC(=O)c5c(C)ccc(C)c5O)[C@H](C)O4)[C@@H](C)O2)C(=O)C(C(C)=O)=C(O)[C@@]1(O)C3=O`: the IC50 was 1.34 µM.

Take `COc1ccc(-c2cc3c(=O)n(CC(=O)Nc4ccccc4Cl)ccn3n2)cc1`: the IC50 was 5.49 µM.

Consider `C=C1CCC2[C@](C)(CCC[C@]2(C)C(=O)OC)[C@H]1CCc1ccoc1C[N+](C)(C)Cc1ccccc1` (stereo not given in full), for which the IC50 is > 50 µM (inactive).

As to `O=C1CC(O)C(C2=CC(=O)c3c(O)cccc3C2=O)O1` (stereo not given), the 50% inhibitory concentration (IC50) was 0.233 µM.

Consider `Cc1ccc(Cl)cc1NC(=O)c1cc(-c2ccccn2)n[nH]1`, for which the half-maximal inhibitory concentration (IC50) was 7.13 µM.

Take `COc1ccc(NC(=O)Cn2cc(C(=O)c3ccc(F)cc3)c(=O)c3cc(C)ccc32)cc1`: the IC50 is 24 µM.

As for `COc1ccc(C2C(C(=O)C(C)(C)C)N3c4ccccc4C=CC3C23C(=O)c2ccccc2C3=O)c(OC)c1` (stereo not given), the IC50 was > 50 µM (inactive).

Take `COc1ccccc1NS(=O)(=O)c1ccc2oc(SCC(=O)c3ccccc3)nc2c1`: the IC50 was > 50 µM (inactive).

As to `CC(=O)c1cc2c(=O)c3c(C(=O)O)c(O)c(O)cc3oc2c(C(C)=O)c1-c1coc2cc(O)c(O)c(C(=O)O)c2c1=O`, the concentration for half-maximal inhibition (IC50) was 0.49 µM.

`COc1ccc(C(=O)CSc2nnc(-c3cc4cccc(OC)c4o3)n2C)cc1OC`: the IC50 is > 50 µM (inactive).

As to `O=C(Nc1ccc(F)cc1F)NC1CCN(c2ccccc2)C1=O` (stereo not given), the IC50 was 18.3 µM.

For the compound `O=C(NCc1ccc(F)cc1)c1cc(-n2cnnn2)ccc1Cl`, the IC50 was 25.4 µM.

For `N[C@@H](Cc1ccccc1)C(=O)N1CCC2(CC1)CN(C(=O)c1ccc(Cl)cc1)CCO2`, the IC50 is > 50 µM (inactive).

Regarding `COc1ccc(C2CC(c3ccccc3)N(C(=O)C3CC3)c3ncnn32)cc1` (stereo not given), the IC50 was > 50 µM (inactive).

Turning to `CC(=O)N1Cc2ccccc2CC2(CCCN(CC3CCOCC3)C2)C1` (stereo not given), the IC50 is > 50 µM (inactive).

For `COc1ccc(CNC(=O)CCc2nnc3n(Cc4ccccc4Cl)c(=O)c4ccccc4n23)cc1`, the IC50 was 2.65 µM.

As to `O=C1CC(c2ccco2)Cc2[nH]c(=O)c(-c3nc(-c4ccc(Cl)cc4)cs3)cc21` (stereo not given), the IC50 is > 50 µM (inactive).

For the compound `COc1ccc(NC(=O)Cn2c(CSc3ccc(C)cc3)nc3ccccc32)cc1`, the IC50 is 36 µM.

On to `CC(=O)c1ccccc1NC(=O)COc1ccc(-c2ccc(C#N)cc2)cc1`, for which the IC50 is 2.62 µM.

For `O=C(NCc1ccc2c(c1)OCO2)c1nc(-c2ccccc2)n(-c2ccccc2)n1`, the IC50 is > 50 µM (inactive).

Consider `Cc1cc(C)cc(-n2ccnc(SCC(=O)Nc3cccc(Cl)c3)c2=O)c1`, for which the IC50 was 28.3 µM.

As to `O=C(Nc1ccc2c(c1)OCCO2)c1ccc(N2CCCCC2)nn1`, the IC50 was > 50 µM (inactive).

Turning to `Cc1cc(NC(=O)Cn2c(=O)n(CCCCC(=O)NCc3ccco3)c(=O)c3ccccc32)ccc1Br`, the half-inhibitory concentration (IC50) is 2.84 µM.

For `COc1ccc(CCNC(=O)c2cn(-c3ccc(F)cc3)nn2)cc1OC`, the IC50 is 18.7 µM.

Turning to `CCc1c(Cl)c(O)c(Cl)c(O)c1C(=O)O[C@H]1C(C)O[C@@H](OC/C2=C\C=C\CC(O)/C(C)=C/C(CC)C(O[C@@H]3OC(C)(C)[C@H](O)C(OC(=O)C(C)C)[C@@H]3O)/C(C)=C/C(C)=C/CC(C(C)O)OC2=O)[C@@H](OC)C1O` (stereo not given in full), the IC50 is > 50 µM (inactive).

On to `Cc1cc(Nc2ccc(C(=O)NCc3ccco3)cc2)n2nc(-c3cccnc3)nc2n1`, for which the IC50 was 34.1 µM.

Regarding `Cn1c(CCNC(=O)c2[nH]nc3c2CCc2ccccc2-3)nc2ccccc21`, the IC50 is 32.8 µM.

In the case of `CC(=O)c1cccc(NC(=O)c2ccc(N3CCCCC3)nn2)c1`, the half-inhibitory concentration (IC50) was 43 µM.

Take `O=C(O)COc1ccccc1/C=C1\CCc2c1nc1ccccc1c2C(=O)O`: the IC50 was > 50 µM (inactive).

For the compound `Cc1nn(-c2ccc(F)cc2)cc1-c1noc(C(=O)NCc2ccccn2)n1`, the half-maximal inhibitory concentration (IC50) is 23.5 µM.

`CCn1ccc2c(cc(C(=O)Nc3cc(F)ccc3F)n2C)c1=O`: the IC50 is > 50 µM (inactive).

For `O=C(OC1CSc2nc3ccccc3n2C1)c1ccc([N+](=O)[O-])o1` (stereo not given), the IC50 was 30.5 µM.

For the compound `COc1c(C)c(C(O)C(C)O)c2[nH]c3ccc(CC=C(C)C)cc3c2c1O` (stereo not given), the IC50 was 17.1 µM.

On to `COc1ccc(C(=O)Nc2cc(-c3ccccn3)no2)cn1`, for which the IC50 is > 50 µM (inactive).

In the case of `CC(C)Cc1nc2sc3c(NCc4ccccc4)ncnc3c2c2c1COC(C)(C)C2`, the half-maximal inhibitory concentration (IC50) is 6.77 µM.

In the case of `COc1ccc(CNC(=O)CCc2nc3sc4c(c3c(=O)[nH]2)CCCCC4)cc1`, the IC50 was > 50 µM (inactive).

`COc1ccc(Cn2c(SCc3ccc(C(=O)NCCc4ccccc4)cc3)nc3ccncc32)cc1`: the IC50 was > 50 µM (inactive).

`Cc1c(C)c2ccc(OCC(=O)NCc3ccncc3)c(C)c2oc1=O`: the concentration for half-maximal inhibition (IC50) was 41.8 µM.

Consider `CCOC(=O)c1ccc(NC(=O)Cn2c(=O)n(CC(=O)NCCc3ccc(OC)c(OC)c3)c(=O)c3sccc32)cc1`, for which the IC50 is 2.51 µM.

For `COc1ccccc1NC(=O)c1cc2c(C)nn(Cc3ccccc3)c2s1`, the half-maximal inhibitory concentration (IC50) is 29.9 µM.

`Cc1cccc(C(=O)N2CCc3cc(-c4nc(NC(=O)CNc5ccccc5)sc4C)ccc32)c1`: the IC50 was > 50 µM (inactive).

For the compound `CC(=O)N1CCc2cc(S(=O)(=O)NCc3ccc(C)cc3)ccc21`, the IC50 was > 50 µM (inactive).

In the case of `O=C(CSc1nc2ccncc2[nH]1)Nc1ccc(Br)cc1F`, the IC50 was 37.9 µM.

Regarding `Cc1nc2cccnc2n1C1CCN(C(=O)c2cc3cc(Cl)ccc3[nH]2)C1` (stereo not given), the IC50 is > 50 µM (inactive).

`O=C(Nc1ccc(Cl)cc1F)c1cc(-c2ccccn2)n[nH]1`: the IC50 was 0.323 µM.

`Cc1ccc(NC(=O)CNC(=O)c2cc3ccccc3o2)cc1`: the half-inhibitory concentration (IC50) was 14.6 µM.

Consider `CN(C)c1ccc(C2CC(c3c(O)n(C)c(=O)[nH]c3=O)=Nc3ccccc3S2)cc1` (stereo not given), for which the IC50 was 2.37 µM.

Take `O=C(Cn1c(-c2ccccc2)ncc(C(=O)NC2CC2)c1=O)Nc1ccccc1`: the IC50 is 12.1 µM.

For `O=C(CN1C(=O)C2CCCC2=Nc2ccccc21)Nc1ccc(F)cc1F` (stereo not given), the IC50 was 32.2 µM.

For `COc1ccccc1NC(=O)Cn1cc(C(=O)c2ccc(C)cc2)c(=O)c2ccccc21`, the half-inhibitory concentration (IC50) is 22.9 µM.

With `COc1ccc(C(=O)Nc2cc(F)c3nc(N4CCOCC4)ccc3c2)c(OC)c1`, the IC50 was 33.9 µM.
